According to patent publication US10544130B2, “Metallo-beta-lactamase inhibitors” (priority 2015, dated 2020):

Tested on: Pseudomonas aeruginosa PAO1 MB9798 (efflux+, IMP-1)
Settings: ratio MITC95 PA 9798/MITC95 PA 9799; imipenem at 2 μg/mL
In short: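 Isogenic PAO1 pair (efflux+ MB9798, efflux− MB9799, both IMP-1) tested by microbroth MIC with fixed imipenem and/or ceftazidime, usually at CLSI breakpoint, plus fixed class A/C inhibitor against AmpC. MBL inhibitor titrated; concentration restoring susceptibility recorded and fold difference between strains taken as efflux extent.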

| Compound | Efflux ratio |
| --- | --- |
| Nc1nc2c(-c3ccc(S(=O)(=O)N[C@H]4CN[C@H](CO)C4)c(S(N)(=O)=O)c3-c3nnn[nH]3)cccc2[nH]1 [Example 172, 4-(2-amino-1H-benzo[d]imidazol-4-yl)-N^1-((3R,5S)-5-(hydroxymethyl)pyrrolidin-3-yl)-3-(1H-tetrazol-5-yl)benzene-1,2-disulfonamide] | 0.50 |
| Nc1nc2c(-c3ccc(S(=O)(=O)N[C@H]4CN[C@@H](CO)C4)c(S(N)(=O)=O)c3-c3nnn[nH]3)cccc2[nH]1 [Example 173, 4-(2-amino-1H-benzo[d]imidazol-4-yl)-N^1-((3R,5R)-5-(hydroxymethyl)pyrrolidin-3-yl)-3-(1H-tetrazol-5-yl)benzene-1,2-disulfonamide] | 1.00 |
| Nc1nc2c(-c3ccc(S(=O)(=O)N[C@@H]4CN[C@@H](CO)C4)c(S(N)(=O)=O)c3-c3nnn[nH]3)cccc2[nH]1 [Example 174, 4-(2-amino-1H-benzo[d]imidazol-4-yl)-N^1-((3S,5R)-5-(hydroxymethyl)pyrrolidin-3-yl)-3-(1H-tetrazol-5-yl)benzene-1,2-disulfonamide] | 1.00 |
| Nc1nc2c(-c3ccc(S(=O)(=O)N[C@@H]4CN[C@H](CO)C4)c(S(N)(=O)=O)c3-c3nnn[nH]3)cccc2[nH]1 [Example 175, 4-(2-amino-1H-benzo[d]imidazol-4-yl)-N^1 - ((3S,5S)-5-(hydroxymethyl)pyrrolidin-3-yl)-3-(1H-tetrazol-5-yl)benzene-1,2-disulfonamide] | 0.50 |
| Nc1nc2c(-c3ccc(S(=O)(=O)N[C@@]4(CO)CCNC4)c(S(N)(=O)=O)c3-c3nnn[nH]3)cccc2[nH]1 [Example 176, (S)-4-(2-amino-1H-benzo[d]imidazol-4-yl)-N1-(3-(hydroxymethyl)pyrrolidin-3-yl)-3-(1H-tetrazol-5-yl)benzene-1,2-disulfonamide] | 1.00 |
| Nc1nc2c(-c3ccc(S(=O)(=O)N[C@]4(CO)CCNC4)c(S(N)(=O)=O)c3-c3nnn[nH]3)cccc2[nH]1 [Example 177, (R)-4-(2-amino-1H-benzo[d]imidazol-4-yl)-N1-(3-(hydroxymethyl)pyrrolidin-3-yl)-3-(1H-tetrazol-5-yl)benzene-1,2-disulfonamide] | 0.50 |
| Nc1nc2c(-c3ccc(S(=O)(=O)N[C@@H]4CCCNC4)c(S(N)(=O)=O)c3-c3nnn[nH]3)cccc2[nH]1 [Example 178, (R)-4-(2-amino-1H-benzo[d]imidazol-4-yl)-N^1-(piperidin-3-yl)-3-(1H-tetrazol-5-yl)benzene-1,2-disulfonamide] | 1.00 |
| Nc1nc2c(-c3ccc(S(=O)(=O)N[C@H]4CCCNC4)c(S(N)(=O)=O)c3-c3nnn[nH]3)cccc2[nH]1 [Example 179, (S)-4-(2-amino-1H-benzo[d]imidazol-4-yl)-N^1-(piperidin-3-yl)-3-(1H-tetrazol-5-yl)benzene-1,2-disulfonamide] | 2.00 |
| NCCNS(=O)(=O)c1ccc(-c2cc(F)cc3[nH]c(N)nc23)c(-c2nnn[nH]2)c1S(N)(=O)=O [Example 180, 4-(2-amino-6-fluoro-1H-benzo[d]imidazol-4-yl)-N^1-(2-aminoethyl)-3-(1H-tetrazol-5-yl)benzene-1,2-disulfonamide] | 0.50 |
| NCCCNS(=O)(=O)c1ccc(-c2cccc3[nH]c(N)nc23)c(-c2nn[nH]n2)c1S(N)(=O)=O [Example 182, 4-(2-amino-1H-benzo[d]imidazol-4-yl)-N1-(3-aminopropyl)-3-(2H-tetrazol-5-yl)benzene-1,2-disulfonamide] | 0.80 |
| Cn1c(N)nc2c(-c3ccc(S(=O)(=O)NCCCN)c(S(N)(=O)=O)c3-c3nn[nH]n3)cccc21 [Example 183, 4-(2-amino-1-methyl-1H-benzo[d]imidazol-4-yl)-N^1-(3-aminopropyl)-3-(2H-tetrazol-5-yl)benzene-1,2-disulfonamide] | 1.00 |
| C[C@H](N)CNS(=O)(=O)c1ccc(-c2cccc3[nH]c(N)nc23)c(-c2nn[nH]n2)c1S(N)(=O)=O [Example 184, 4-(2-amino-1H-benzo[d]imidazol-4-yl)-N1-((S)-2-aminopropyl)-3-(2H-tetrazol-5-yl)benzene-1,2-disulfonamide] | 1.00 |
| C[C@@H](N)CNS(=O)(=O)c1ccc(-c2cccc3[nH]c(N)nc23)c(-c2nn[nH]n2)c1S(N)(=O)=O [Example 185, 4-(2-amino-1H-benzo[d]imidazol-4-yl)-N1-((R)-2-aminopropyl)-3-(2H-tetrazol-5-yl)benzene-1,2-disulfonamide] | 0.65 |
| C[C@@H](CN)NS(=O)(=O)c1ccc(-c2cccc3[nH]c(N)nc23)c(-c2nn[nH]n2)c1S(N)(=O)=O [Example 186, 4-(2-amino-1H-benzo[d]imidazol-4-yl)-N^1—((S)-1-aminopropan-2-yl)-3-(2H-tetrazol-5-yl)benzene-1,2-disulfonamide] | 2.00 |
| C[C@H](CN)NS(=O)(=O)c1ccc(-c2cccc3[nH]c(N)nc23)c(-c2nn[nH]n2)c1S(N)(=O)=O [Example 187, 4-(2-amino-1H-benzo[d]imidazol-4-yl)-N^1—((R)-1-aminopropan-2-yl)-3-(2H-tetrazol-5-yl)benzene-1,2-disulfonamide] | 0.50 |
| NC(=O)[C@H](N)CNS(=O)(=O)c1ccc(-c2cccc3[nH]c(N)nc23)c(-c2nn[nH]n2)c1S(N)(=O)=O [Example 188, (2R)-2-amino-3-(4-(2-amino-1H-benzo[d]imidazol-4-yl)-2-sulfamoyl-3-(2H-tetrazol-5-yl)phenylsulfonamido)propanamide] | 0.50 |
| NC(=O)[C@@H](N)CNS(=O)(=O)c1ccc(-c2cccc3[nH]c(N)nc23)c(-c2nn[nH]n2)c1S(N)(=O)=O [Example 189, (2S)-2-amino-3-(4-(2-amino-1H-benzo[d]imidazol-4-yl)-2-sulfamoyl-3-(2H-tetrazol-5-yl)phenylsulfonamido)propanamide] | 0.50 |
| Nc1nc2c(-c3ccc(S(=O)(=O)NC[C@@H](N)CO)c(S(N)(=O)=O)c3-c3nn[nH]n3)cccc2[nH]1 [Example 190, 4-(2-amino-1H-benzo[d]imidazol-4-yl)-N1-((R)-2-amino-3-hydroxypropyl)-3-(2H-tetrazol-5-yl)benzene-1,2-disulfonamide] | 0.50 |
| Nc1nc2c(-c3ccc(S(=O)(=O)NC[C@H](N)CO)c(S(N)(=O)=O)c3-c3nn[nH]n3)cccc2[nH]1 [Example 191, 4-(2-amino-1H-benzo[d]imidazol-4-yl)-N^1—((S)-2-amino-3-hydroxypropyl)-3-(2H-tetrazol-5-yl)benzene-1,2-disulfonamide] | 1.00 |
| NS(=O)(=O)c1c(S(=O)(=O)N[C@@H]2CCNC2)ccc(-c2cccc3[nH]cnc23)c1-c1nn[nH]n1 [Example 193, 4-(1H-benzo[d]imidazol-4-yl)-N1-((R)-pyrrolidin-3-yl)-3-(2H-tetrazol-5-yl)benzene-1,2-disulfonamide] | 1.00 |
| Nc1ccc(-c2ccc(S(=O)(=O)N[C@@H]3CCNC3)c(S(N)(=O)=O)c2-c2nn[nH]n2)cn1 [Example 194, (R)-4-(6-aminopyridin-3-yl)-N^1-(pyrrolidin-3-yl)-3-(2H-tetrazol-5-yl)benzene-1,2-disulfonamide] | 0.80 |
| Nc1ccc(-c2ccc(S(=O)(=O)N[C@H]3CCNC3)c(S(N)(=O)=O)c2-c2nn[nH]n2)cn1 [Example 195, (S)-4-(6-aminopyridin-3-yl)-N^1-(pyrrolidin-3-yl)-3-(2H-tetrazol-5-yl)benzene-1,2-disulfonamide] | 1.00 |
| NCCNS(=O)(=O)c1ccc(-c2ccc(N)nc2)c(-c2nn[nH]n2)c1S(N)(=O)=O [Example 196, N^1-(2-aminoethyl)-4-(6-aminopyridin-3-yl)-3-(2H-tetrazol-5-yl)benzene-1,2-disulfonamide] | 1.00 |
| NS(=O)(=O)c1c(S(=O)(=O)N[C@H]2CCNC2)ccc(-c2cccc3[nH]cnc23)c1-c1nn[nH]n1 [Example 197, 4-(1H-benzo[d]imidazol-4-yl)-N^1—((S)-pyrrolidin-3-yl)-3-(2H-tetrazol-5-yl)benzene-1,2-disulfonamide] | 1.00 |
| NCCCNS(=O)(=O)c1ccc(-c2cccc3[nH]cnc23)c(-c2nn[nH]n2)c1S(N)(=O)=O [Example 198, N^1-(3-aminopropyl)-4-(1H-benzo[d]imidazol-4-yl)-3-(2H-tetrazol-5-yl)benzene-1,2-disulfonamide] | 1.00 |
| NCCNS(=O)(=O)c1ccc(-c2cccc3[nH]cnc23)c(-c2nn[nH]n2)c1S(N)(=O)=O [Example 199, N^1-(2-aminoethyl)-4-(1H-benzo[d]imidazol-4-yl)-3-(2H-tetrazol-5-yl)benzene-1,2-disulfonamide] | 0.55 |
| NS(=O)(=O)c1c(S(=O)(=O)N[C@H]2C[C@H](N)C2)ccc(-c2cccc3[nH]cnc23)c1-c1nn[nH]n1 [Example 200, N^1-((1r,3r)-3-aminocyclobutyl)-4-(1H-benzo[d]imidazol-4-yl)-3-(2H-tetrazol-5-yl)benzene-1,2-disulfonamide] | 1.00 |
| NC[C@@H](CO)NS(=O)(=O)c1ccc(-c2cccc3sc(N)nc23)c(-c2nnn[nH]2)c1S(N)(=O)=O [Example 201, (S)—N^1-(1-amino-3-hydroxypropan-2-yl)-4-(2-aminobenzo[d]thiazol-4-yl)-3-(1H-tetrazol-5-yl)benzene-1,2-disulfonamide] | 0.50 |
| NC[C@H](CO)NS(=O)(=O)c1ccc(-c2cccc3sc(N)nc23)c(-c2nnn[nH]2)c1S(N)(=O)=O [Example 202, (R)—N^1-(1-amino-3-hydroxypropan-2-yl)-4-(2-aminobenzo[d]thiazol-4-yl)-3-(1H-tetrazol-5-yl)benzene-1,2-disulfonamide] | 1.00 |
| NCCOCCNS(=O)(=O)c1ccc(-c2cccc3sc(N)nc23)c(-c2nnn[nH]2)c1S(N)(=O)=O [Example 203, 4-(2-aminobenzo[d]thiazol-4-yl)-N^1-(2-(2-aminoethoxy)ethyl)-3-(1H-tetrazol-5-yl)benzene-1,2-disulfonamide] | 0.50 |
